Laboratory results reported in patent US10000452B1, “Quinolone-based compounds, formulations, and uses thereof” (University of South Florida, priority 2016, dated 2018).
In brackets after ≈: the same amount, converted by molar mass. Like-named read-outs stand apart in the source and are kept apart here.

What was measured:
[1] = test system: malarial strain W2 (pyrimethamine and chloroquine-resistant); experiment: in vitro antimalarial activity against multidrug resistant strain W2; format: cell-based, P. falciparum
[2] = test system: malarial strain TM90-C2B (mefloquine, chloroquine, atovaquone, and pyrimethamine-resistant); experiment: microbe, parasite or virus in culture; format: cell-based, P. falciparum; details: for RI: RI = EC50 TM90-C2B/EC50 W2
Description: Ideally, the RI of a compound should lie between 0.3 and 3.0 in order to avoid rapidly inducing resistance in the parasite. […]

[3] = test system: P. berghei sporozoites expressing luciferase; experiment: in vitro liver stage activity, luciferase sporozoites infecting HEPG2 hepatoma cells; format: cell-based; details: HEPG2 cells
J774 mammalian cells = experiment: cytotoxicity to J774 cells; format: cell-based; details: Mus musculus
Protocol: This allowed a simplified method for comparing the different assays being simultaneously run. Additionally, each compound was also tested for cytotoxicity using mammalian J774 cell lines in a 96-well plate format.^12-14, 16

[4] = aqueous solubility (LC/MS- or HPLC-based assay); format: physicochemical
Description: (§1) Furthermore, to profile the properties of the piperazinyl-4(1H)-quinolones, and to identify potential limitations, aqueous solubility and lipophilicity log D were experimentally determined via LC/MS-based assays as described by the Manetsch laboratory previously^8,10,31,32 (Tables 9-12). Encouragingly, the piperazinyl-4(1H)-quinolones were much more soluble than the previously described phenoxyethoxy-4(1H)-quinolone analogues.^19 As expected, the solubility of all compounds was affected by pH, with better solubility under more acidic conditions.
(§2) In parallel to testing the compounds for in vitro antimalarial activity, a limited structure-property relationship (SPR) study focusing on log D and aqueous solubility was conducted to assess potential physiochemical liabilities (FIG. 22). […] For these reasons, physicochemical properties were not strongly considered as selection criteria for in vivo efficacy studies.

[5] = lipophilicity log D at pH 7.4; format: physicochemical; details: octanol/water
Description: as §1, §2

Pb-infected mice = experiment: in vivo efficacy scouting assay against blood stages; set-up: species or system P. berghei; mice; details: for % inhibition on day 6 PE: Example 2: two mice, single 50 mg/kg oral dose in PEG400 on day 1 PE
Protocol: The screening involved a single oral 50 mg/kg dose 1 day post infection (PI) and an assessment of parasitemia on days 3 PI and 6 PI (Table 6).
The screening was performed by treating two infected mice with a single 50 mg/kg oral dose of test compound suspended in PEG400 on day 1 postexposure (PE) followed by assessing parasitemia on days 3 and 6 PE.

[6] = Plasmodium falciparum, read-out: EC50 W2 (nM)
[7] = Plasmodium falciparum, TM90, read-out: EC50 TM90-C2B (nM)
[8] = aqueous medium, pH 2, simulated gastric fluid, pH 2.0, read-out: Solubility pH 2.0
[9] = aqueous medium, pH 6.5, aqueous buffer, pH 6.5, read-out: Solubility pH 6.5
[10] = aqueous solution (buffer not named), pH 2, simulated gastric fluid, pH 2.0, read-out: Solubility pH 2.0
[11] = aqueous solution (buffer not named), pH 6.5, aqueous buffer, pH 6.5, read-out: Solubility pH 6.5

Work on `COC(=O)c1c[nH]c2cc(OCCOc3ccccc3)c(Cl)cc2c1=O` [Compound 6ab, Methyl 6-Chloro-4-oxo-7-(2-phenoxyethoxy)-1,4-dihydroquinoline-3-carboxylate] yielded an EC50 [1, 6] of 9.93 nM, an EC50 [2, 7] of 617 nM and an EC50 ([3]; Plasmodium berghei) of 0.063 nM.

In the case of `COC(=O)c1c[nH]c2cc(CCN3CCN(Cc4ccc(OC)cc4)CC3)ccc2c1=O` [Compound 8ae, Methyl 7-(2-(4-(4-methoxybenzyl)piperazin-1-yl)ethyl)-4-oxo-1,4-dihydroquinoline-3-carboxylate], the EC50 [1, 6] is reported as 11.6 nM, the RI [2] is reported as over 495 and the EC50 (J774 mammalian cells; J774, read-out: EC50 J774 (μM)) is reported as over 20 µM. It also gave a solubility [4, 8] of at least 80 µM, a solubility [4, 9] of at least 80 µM and a chromatographic logD [5] of 1.68.

`COC(=O)c1c[nH]c2cc(OCCOc3ccccc3)c(C)cc2c1=O` [Compound 6ac, Methyl 6-Methyl-4-oxo-7-(2-phenoxyethoxy)-1,4-dihydroquinoline-3-carboxylate] showed an EC50 [1, 6] of 2.01 nM, an EC50 [2, 7] of 499 nM and an EC50 ([3]; Plasmodium berghei) of 152 nM.

For `CCN(CC)CCCC(C)Nc1ccnc2cc(Cl)ccc12` (stereo not drawn) [CQ, Chloroquine, reference compound], the EC50 (J774 mammalian cells; J774, cytotoxicity, 96 well plate format, read-out: EC50 J774) was 47.2 µM.

In the case of `COC(=O)c1c[nH]c2cc(OCCOc3ccccc3)c(Br)cc2c1=O` [Compound 6z, Methyl 6-Bromo-4-oxo-7-(2-phenoxyethoxy)-1,4-dihydroquinoline-3-carboxylate], the EC50 [1, 6] is reported as 4.47 nM, the EC50 [2, 7] is reported as 847 nM and the EC50 ([3]; Plasmodium berghei) is reported as 0.336 nM.

With `COC(=O)c1c[nH]c2cc(OCCOc3ccccc3)ccc2c1=O` [Compound 6a, Methyl 4-Oxo-7-(2-phenoxyethoxy)-1,4-dihydroquinoline-3-carboxylate] the EC50 [1, 6] was 2.8 nM, the RI [2] was 26.3 and the “EC50 Pb (nM)” value [3] was “subnanomolar”. For the same molecule, the EC50 ([3]; Plasmodium berghei) was 0.286 nM.

`C[C@H]1[C@@H](O)O[C@@H]2O[C@@]3(C)CC[C@H]4[C@H](C)CC[C@@H]1[C@@]24OO3` [DHA, dihydroartemisinin, reference compound] showed an EC50 (J774 mammalian cells; J774, read-out: EC50 J774 (μM)) of 1.53 µM.

For `CCCCc1cc2c(=O)c(C(=O)O)c[nH]c2cc1OCCOc1ccccc1` [Compound 7b, 6-Butyl-4-oxo-7-(2-phenoxyethoxy)-1,4-dihydroquinoline-3-carboxylic Acid], the EC50 [1, 6] was 64 nM, the EC50 [2, 7] was 1110 nM and the EC50 ([3]; Plasmodium berghei) was 0.267 nM.

`COC(=O)c1c[nH]c2cc(CN3CCN(Cc4ccc5c(c4)OCO5)CC3)ccc2c1=O` [Compound 8m, Methyl 7-((4-(benzo[d][1,3]dioxol-5-ylmethyl)piperazin-1-yl)methyl)-4-oxo-1,4-dihydroquinoline-3-carboxylate] gave an EC50 [1, 6] of 157 nM, an EC50 [2, 7] of over 5740 nM and an RI [2] of over 36.6. For the same molecule, the EC50 (J774 mammalian cells; J774, read-out: EC50 J774 (μM)) was over 20 µM, the solubility [4, 8] was at least 80 µM and the solubility [4, 9] was at least 80 µM. The chromatographic logD [5] was 0.87.

Molecule `Cc1[nH]c2cc(CN3CCN(c4ccc(C(F)(F)F)cc4)CC3)ccc2c(=O)c1Cl` [Compound 8ar, 3-Chloro-2-methyl-7-((4-(4-(trifluoromethyl)phenyl)piperazin-1-yl)methyl)quinolin-4(1H)-one] has an EC50 [1, 6] of 139 nM, an EC50 [2, 7] of 1510 nM and an RI [2] of 10.9. For the same molecule, the EC50 (J774 mammalian cells; J774, read-out: EC50 J774 (μM)) was over 20 µM.

In the case of `COC(=O)c1c[nH]c2ccc(OCCCc3ccccc3)cc2c1=O` [Compound 6g, Methyl 4-Oxo-6-(3-phenylpropoxy)-1,4-dihydroquinoline-3-carboxylate], the “EC50 W2 (nM)” value ([1]; blood stage in vitro, strain W2) is reported as “double-digit nM” and the “% inhibition on day 6 PE” value (Pb-infected mice) is reported as “lack of significant parasitemia reduction”.

For `COC(=O)c1c[nH]c2cc(OCCCc3ccccc3)ccc2c1=O` [Compound 6j, Methyl 4-Oxo-7-(3-phenylpropoxy)-1,4-dihydroquinoline-3-carboxylate], the EC50 [1, 6] was 0.711 nM, the EC50 ([3]; Plasmodium berghei) was 5.26 nM and the “% inhibition on day 6 PE” value (Pb-infected mice) was 47.1%.

In the case of `CCCCc1cc2c(=O)c(C(=O)OCC)c[nH]c2cc1OCCOc1ccccc1` [Compound 6af, Ethyl 6-Butyl-4-oxo-7-(2-phenoxyethoxy)-1,4-dihydroquinoline-3-carboxylate], the EC50 [1, 6] is reported as 0.143 nM and the “EC50 Pb (nM)” value [3] is reported as “subnanomolar”.

With `CCCCc1cc2c(=O)c(CC)c[nH]c2cc1OCCOc1ccccc1` [Compound 6ae, 6-Butyl-3-ethyl-7-(2-phenoxyethoxy)quinolin-4(1H)-one] the EC50 [1, 6] was 0.44 nM, the EC50 [2, 7] was 1.92 nM and the RI [2] was 4.36. The EC50 ([3]; Plasmodium berghei) was 2.65 nM, the EC50 (J774 mammalian cells; J774, read-out: EC50 J774) was 0.36 µM and the “% inhibition on day 6 PE” value (Pb-infected mice) was “lack of significant parasitemia reduction”.

With `COC(=O)c1c[nH]c2cc(N3CCN(Cc4ccccc4)CC3)c(OC)cc2c1=O` [Compound 8h, Methyl 7-(4-benzylpiperazin-1-yl)-6-methoxy-4-oxo-1,4-dihydroquinoline-3-carboxylate] the EC50 [1, 6] was 63.5 nM, the EC50 (J774 mammalian cells; J774, read-out: EC50 J774 (μM)) was 12.4 µM and the solubility [4, 8] was 60 to 79.9 µM (≈ 24.4 to 32.6 µg/mL). The solubility [4, 9] was 40 to 59.9 µM (≈ 16.3 to 24.4 µg/mL) and the chromatographic logD [5] was 2.03.

Molecule `COC(=O)c1c[nH]c2cc(CN3CCN(Cc4ccc(OC)cc4)CC3)c(OC)cc2c1=O` [Compound 8y, Methyl 6-methoxy-7-((4-(4-methoxybenzyl)piperazin-1-yl)methyl)-4-oxo-1,4-dihydroquinoline-3-carboxylate] has an EC50 [1, 6] of 9.97 nM, an EC50 [2, 7] of 2750 nM and an EC50 ([3]; Plasmodium berghei) of 52.4 nM. For the same molecule, the EC50 (J774 mammalian cells; J774, read-out: EC50 J774 (μM)) was over 20 µM and the “% Inhibition Day 6 PI” value (Pb-infected mice; single oral 50 mg/kg dose 1 day PI, vs untreated animals) was “little to moderate protection”.

With `CCCCc1ccc2[nH]cc(C(=O)OC)c(=O)c2c1` [Compound 6c, Methyl 6-Butyl-4-oxo-1,4-dihydroquinoline-3-carboxylate] the EC50 [1, 6] was 1.58 nM, the EC50 [2, 7] was 222 nM and the RI [2] was 141. For the same molecule, the “EC50 Pb (nM)” value [3] was “subnanomolar” and the EC50 ([3]; Plasmodium berghei) was 0.819 nM.

In the case of `COC(=O)c1c[nH]c2ccc(CN3CCN(c4ccc(F)cc4)CC3)cc2c1=O` [Compound 8ah, Methyl 6-((4-(4-fluorophenyl)piperazin-1-yl)methyl)-4-oxo-1,4-dihydroquinoline-3-carboxylate], the EC50 [1, 6] is reported as 106 nM, the EC50 [2, 7] is reported as 2900 nM and the RI [2] is reported as 27.4. The EC50 (J774 mammalian cells; J774, read-out: EC50 J774 (μM)) was over 20 µM, the solubility [4, 10] was at least 80 µM and the solubility [4, 11] was at least 80 µM. It also gave a chromatographic logD [5] of 2.17.

In the case of `COC(=O)c1c[nH]c2cc(N3CCN(Cc4ccc(OC)cc4)CC3)ccc2c1=O` [Compound 8i, Methyl 7-(4-(4-methoxybenzyl)piperazin-1-yl)-4-oxo-1,4-dihydroquinoline-3-carboxylate], the EC50 [1, 6] is reported as 19.9 nM, the EC50 [2, 7] is reported as 1340 nM and the RI [2] is reported as 67.3. It also gave a solubility [4, 8] of at least 80 µM, a solubility [4, 9] of 40 to 59.9 µM (≈ 16.3 to 24.4 µg/mL) and a chromatographic logD [5] of 2.08.

With `COC(=O)c1c[nH]c2ccc(OCc3ccccc3)cc2c1=O` [Compound 6e, Methyl 6-(Benzyloxy)-4-oxo-1,4-dihydroquinoline-3-carboxylate] the EC50 [1, 6] was 11.6 nM, the EC50 [2, 7] was 1100 nM and the EC50 ([3]; Plasmodium berghei) was 127 nM.

Work on `Cc1cc(=O)c2ccc(CN3CCN(c4ccc(F)cc4)CC3)cc2[nH]1` [Compound 8am, 7-((4-(4-Fluorophenyl)piperazin-1-yl)methyl)-2-methylquinolin-4(1H)-one] yielded an EC50 [1, 6] of 1220 nM, an EC50 [2, 7] of 1450 nM and an RI [2] of 1.19. It also gave an EC50 (J774 mammalian cells; J774, read-out: EC50 J774 (μM)) of over 20 µM, a solubility [4, 10] of at least 80 µM and a solubility [4, 11] of at least 80 µM. For the same molecule, the chromatographic logD [5] was 2.44.

For `COC(=O)c1c[nH]c2cc(CCN3CCN(c4ccccc4)CC3)ccc2c1=O` [Compound 8ac, Methyl 4-oxo-7-(2-(4-phenylpiperazin-1-yl)ethyl)-1,4-dihydroquinoline-3-carboxylate], the EC50 [1, 6] was 25.6 nM, the EC50 [2, 7] was 1500 nM and the RI [2] was 58.6. For the same molecule, the EC50 (J774 mammalian cells; J774, read-out: EC50 J774 (μM)) was over 20 µM, the solubility [4, 8] was at least 80 µM and the solubility [4, 9] was at least 80 µM. The chromatographic logD [5] was 5.11.

`COc1cc2c(=O)c(Br)c(C)[nH]c2cc1CN1CCN(c2ccc(C(F)(F)F)cc2)CC1` [Compound 8at, 3-Bromo-6-methoxy-2-methyl-7-((4-(4-(trifluoromethyl)phenyl)piperazin-1-yl)methyl)quinolin-4(1H)-one] showed an EC50 [1, 6] of 128 nM, an EC50 [2, 7] of over 5000 nM and an RI [2] of over 39.1. The EC50 (J774 mammalian cells; J774, read-out: EC50 J774 (μM)) was over 20 µM.

“Methyl 7-(4-benzylpiperazin-1-yl)-4-oxo-1,4-dihydroquinoline-3-carboxylate [Compound 8b]” showed an EC50 ([1]; blood stage in vitro, strain W2, read-out: EC50 W2) of 328 nM, an RI [2] of 1.31 and an EC50 ([2]; blood stage in vitro, atovaquone-resistant strain TM90-C2B, read-out: EC50 TM90-C2B) of 430 nM. The EC50 [3] was 5.82 nM.

`Cc1[nH]c2cc(CN3CCN(c4ccc(C(F)(F)F)cc4)CC3)ccc2c(=O)c1Br` [Compound 8aq, 3-Bromo-2-methyl-7-((4-(4-(trifluoromethyl)phenyl)piperazin-1-yl)methyl)quinolin-4(1H)-one] gave an EC50 [1, 6] of 121 nM, an EC50 [2, 7] of 95.4 nM and an RI [2] of 0.79. It also gave an EC50 (J774 mammalian cells; J774, read-out: EC50 J774 (μM)) of over 20 µM.
